The test system of test [1] is A2780. Kind of test: Cytotoxicity against human A2780 cells after 2 days by Alamar blue assay. In kind it is functional, cell-based. Conditions: A2780, 48 h.
The subject of test [2] is A2780. Kind of test: Ratio of compound IC50 to Paclitaxel IC50 for human A2780 cells. The format is functional.
Test [3] can be described thus: Effect on bovine brain tubulin assembly by spectrophotometry. Set-up: species or system Bos taurus.
Test [4] can be described thus: Binding affinity to microtubule by spectrofluorometry.

As a reminder, the IC50 is the midpoint of a concentration-inhibition curve. A higher IC50 goes with lower potency. By EC50 is commonly meant the concentration needed to bring the measured effect to its halfway point. The term Kd denotes the equilibrium constant for the complex coming apart. Take `CCCC[C@H](C)[C@H](OC(N)=O)[C@@H](C)[C@H](O)[C@@H](C)C/C(C)=C\[C@H](C)[C@@H](O)[C@@H](C)/C=C\[C@@H](O)CCOC(=O)c1cccc(N(C)C)c1`: the IC50 in the test with A2780 [1] was determined as 5.4 µM. In addition, the Ratio IC50 with A2780 [2] is 386. This molecule showed an EC50 in test [3] of 5.2 µM. The molecule also came in with a Kd in test [4] of 24 µM.

As to `CC(=O)O[C@H]1C(=O)[C@@]2(C)[C@H]([C@H](OC(=O)c3ccccc3)[C@]3(O)C[C@H](OC(=O)[C@H](O)[C@@H](NC(=O)c4ccccc4)c4ccccc4)C(C)=C1C3(C)C)[C@]1(OC(C)=O)CO[C@@H]1C[C@@H]2O` [PACLITAXEL], the EC50 in test [3] worked out at 0.49 µM. Besides, the affinity in test [4], expressed as Kd, was 0.015 µM.
